Data taken from patent publication US20250346588A1, “IMIDAZOPYRIDINE AND OXAZOLOPYRIDINE DERIVATIVES AND ANALOGS THEREOF, METHODS OF PREPARATION THEREOF, METHODS OF HIF-1/2A PATHWAY INHIBITION, AND INDUCTION OF FERROPTOSIS” (KUDA THERAPEUTICS, INC., priority 2022, published 2025).

Test system: HIF-2α transcriptional activity
Assay: Hypoxia-responsive element-driven luciferase (HRE-Luc) screen
Type: cell-based, human
Settings: 786-0 ccRCC cells stably expressing HRE-Luc; 24 h treatment; range of IC50 values
Experimental: Screens for inhibitory activity of compounds described herein were performed using 786-0 ccRCC cells that stably express HRE-Luc: 5 copies of the hypoxia-responsive element (HRE) fused to the pGL3 luciferase reporter (Promega Corp, Madison WI). 786-0 cells are pVHL deficient and thus constitutively express HIF-2α independently of cellular oxygen tension. Since 786-0 cells lack HIF-1α, HRE-driven luciferase activity is primarily HIF-2α driven, and has been previously validated. Cells were maintained at log phase growth in […] (DMEM) with 10% FBS in a humidified incubator at 37° C. with 5% CO2. For screening assays, cells were seeded at a density of 4,000 cells in 50 μl of complete media/well in quadruplicate wells/point in a 96-well plate. After 24 h, 50 μl of a 2× concentration of test compound was added to each well. Compounds were diluted from a 5-10 mM stock in DMSO and final concentrations of DMSO in each well in controls and treated wells were kept constant at ≤0.6% DMSO. After 24 h treatment, luciferase activity was measured using the Steady-Glo Luciferase assay system (Promega Corp) according to the manufacturer's protocol. Cell viability was measured in quadruplicate parallel wells using resazurin as recommended by the manufacturer (R&D systems, Minneapolis, MN). Data for luciferase and resazurin were normalized to DMSO treated controls (defining 100%) and wells containing assay reagent but no cells (defining 0%) and graphed using the log inhibitor versus normalized response option in Graphpad Prism 9.3.1 software. Representative data determined using Steady-Glo luciferase and resazurin are shown in FIGS. 1A and 1B respectively, with error bars showing SD. Filled diamonds, empty squares and empty triangles indicate treatment with 3, 8 and 22 respectively with results for HRE-Luc shown in FIG. 1A.

Structure (SMILES)	IC50
COc1cccc2nc(Nc3nnc(C4CCC(OC)CC4)o3)[nH]c12 (single isomer, unassigned) [Compound 75-isomer-2, N-(7-methoxy-1H-benzo[d]imidazol-2-yl)-5-(4-methoxycyclohexyl)-1,3,4-oxadiazol-2-amine]	10 to 50 µM
COc1ccc(-c2nnc(Nc3nc4c(Cl)nccc4[nH]3)o2)cc1 [Compound 23, N-(4-chloro-1H-imidazo[4,5-c]74yridine-2-yl)-5-(4-methoxyphenyl)-1,3,4-oxadiazol-2-amine]	10 to 50 µM

Same assay, conditions: Homo sapiens, 786-0, 24 h, 786-0 ccRCC cells stably expressing HRE-Luc; 24 h treatment; range of IC50 values

IC50	Structure (SMILES)
< 10 µM	COc1ccc2[nH]c(Nc3nnc(-c4ccc(F)cc4)o3)nc2n1 [Compound 4, 5-(4-Fluorophenyl)-N-(5-methoxy-1H-imidazo[4,5-b]pyridin-2-yl)-1,3,4-oxadiazol-2-amine]
> 10 µM	Fc1ccc(-c2nnc(Nc3nc4ncccc4o3)o2)cc1 [Compound 8, N-(5-(4-Fluorophenyl)-1,3,4-oxadiazol-2-yl)oxazolo[4,5-b]pyridin-2-amine]
50 to 100 µM	COc1ccc2nc(Nc3nnc(-c4ccc(F)cc4)o3)sc2n1 [Compound 9, 5-(4-Fluorophenyl)-N-(5-methoxythiazolo[5,4-b]pyridin-2-yl)-1,3,4-oxadiazol-2-amine]
10 to 50 µM	Fc1ccc(-c2nnc(Nc3nc4cnc(Cl)nc4[nH]3)o2)cc1 [Compound 14, N-(2-Chloro-9H-purin-8-yl)-5-(4-fluorophenyl)-1,3,4-oxadiazol-2-amine]
50 to 100 µM	COc1cccc(-c2nccc3nc(Nc4nnc(-c5ccc(F)cc5)o4)[nH]c23)c1 [Compound 19, 5-(4-Fluorophenyl)-N-(4-(3-methoxyphenyl)-3H-imidazo[4,5-c]pyridin-2-yl)-1,3,4-oxadiazol-2-amine]
10 to 50 µM	COc1nccc2[nH]c(Nc3nnc(-c4ccc(C(F)(F)F)cc4)o3)nc12 [Compound 20, N-(4-methoxy-1H-imidazo[4,5-c]pyridin-2-yl)-5-(4-(trifluoromethyl)phenyl)-1,3,4-oxadiazol-2-amine]
10 to 50 µM	COc1nccc2[nH]c(Nc3nnc(-c4ccc(OC(F)(F)F)cc4)o3)nc12 [Compound 21, N-(4-methoxy-1H-imidazo[4,5-c]pyridin-2-yl)-5-(4-(trifluoromethoxy)phenyl)-1,3,4-oxadiazol-2-amine]
< 10 µM	COc1nccc2[nH]c(Nc3nnc(-c4ccc5c(c4)OCO5)o3)nc12 [Compound 27, N-(4-Methoxy-1H-imidazo[4,5-c]pyridin-2-yl)-5-(benzo[d][1,3]dioxol-5-yl)-1,3,4-oxadiazol-2-amine]
< 10 µM	COc1nccc2[nH]c(Nc3nnc(-c4ccc(N(C)C)cc4)o3)nc12 [Compound 28, N-(4-Methoxy-1H-imidazo[4,5-c]pyridin-2-yl)-5-(4-(dimethylamino)phenyl)-1,3,4-oxadiazol-2-amine]
< 10 µM	COc1nccc2[nH]c(Nc3nnc(-c4ccc(C)cc4)o3)nc12 [Compound 29, N-(4-methoxy-1H-imidazo[4,5-c]pyridin-2-yl)-5-(p-tolyl)-1,3,4-oxadiazol-2-amine]
< 10 µM	COc1ccc(-c2nnc(Nc3nc4ncccc4o3)o2)cc1 [Compound 30, N-(5-(4-Methoxyphenyl)-1,3,4-oxadiazol-2-yl)oxazolo[4,5-b]pyridin-2-amine]
> 10 µM	COc1nccc2[nH]c(Nc3nnc(-c4ccc(C#N)cc4)o3)nc12 [Compound 32, 4-(5-((4-Methoxy-1H-imidazo[4,5-c]pyridin-2-yl)amino)-1,3,4-oxadiazol-2-yl) benzonitrile]
< 10 µM	COc1ccc(-c2nnc(Nc3nc4c(OC)nccc4[nH]3)o2)cn1 [Compound 39, N-(4-Methoxy-1H-imidazo[4,5-c]pyridin-2-yl)-5-(6-methoxypyridin-3-yl)-1,3,4-oxadiazol-2-amine]
< 10 µM	COc1nccc2[nH]c(Nc3nnc(-c4ccc(OC5CC5)cc4)o3)nc12 [Compound 41, 5-(4-Cyclopropoxyphenyl)-N-(4-methoxy-1H-imidazo[4,5-c]pyridin-2-yl)-1,3,4-oxadiazol-2-amine]
10 to 50 µM	COc1nccc2[nH]c(Nc3nnc(-c4ccc(OC(C)C)cc4)o3)nc12 [Compound 42, 5-(4-Isopropoxyphenyl)-N-(4-methoxy-1H-imidazo[4,5-c]pyridin-2-yl)-1,3,4-oxadiazol-2-amine]

More lines, now with the values behind:

Structure (SMILES)	IC50
COc1cccc2nc(Nc3nnc(C4CCC(OC)CC4)o3)[nH]c12 (single isomer, unassigned) [Compound 75-isomer-1, N-(7-methoxy-1H-benzo[d]imidazol-2-yl)-5-(4-methoxycyclohexyl)-1,3,4-oxadiazol-2-amine]	< 10 µM
Fc1ccc(-c2nnc(Nc3nc4cnc(Cl)cc4[nH]3)o2)cc1 [Compound 5, N-(6-Chloro-1H-imidazo[4,5-c]pyridin-2-yl)-5-(4-fluorophenyl)-1,3,4-oxadiazol-2-amine]	10 to 50 µM
Fc1ccc(-c2nnc(Nc3nc4cnc(C(F)(F)F)cc4[nH]3)o2)cc1 [Compound 6, 5-(4-Fluorophenyl)-N-(6-(trifluoromethyl)-1H-imidazo[4,5-c]pyridin-2-yl)-1,3,4-oxadiazol-2-amine]	10 to 50 µM
Cc1cncc2nc(Nc3nnc(-c4ccc(F)cc4)o3)[nH]c12 [Compound 7, 5-(4-Fluorophenyl)-N-(7-methyl-1H-imidazo[4,5-c]pyridin-2-yl)-1,3,4-oxadiazol-2-amine]	10 to 50 µM
Fc1ccc(-c2nnc(Nc3nc4cnc(N5CCOCC5)cc4[nH]3)o2)cc1 [Compound 10, 5-(4-Fluorophenyl)-N-(6-morpholino-1H-imidazo[4,5-c]pyridin-2-yl)-1,3,4-oxadiazol-2-amine]	10 to 50 µM
Fc1ccc(-c2nnc(Nc3nc4ccnc(N5CCOCC5)c4[nH]3)o2)cc1 [Compound 17, 5-(4-Fluorophenyl)-N-(4-morpholino-3H-imidazo[4,5-c]pyridin-2-yl)-1,3,4-oxadiazol-2-amine]	10 to 50 µM
Fc1ccc(-c2nnc(Nc3nc4cncc(N5CCOCC5)c4[nH]3)o2)cc1 [Compound 18, 5-(4-Fluorophenyl)-N-(7-morpholino-1H-imidazo[4,5-c]pyridin-2-yl)-1,3,4-oxadiazol-2-amine]	10 to 50 µM
COc1ccc(-c2nnc(Nc3nc4c(OC)nccc4[nH]3)o2)cc1OC [Compound 26, N-(4-Methoxy-1H-imidazo[4,5-c]pyridin-2-yl)-5-(3,4-dimethoxyphenyl)-1,3,4-oxadiazol-2-amine]	< 10 µM
Fc1ccc(-c2nnc(Nc3nc4ccnc(-c5ccc6c(c5)OCO6)c4[nH]3)o2)cc1 [Compound 31, N-(4-(Benzo[d][1,3]dioxol-5-yl)-3H-imidazo[4,5-c]pyridin-2-yl)-5-(4-fluorophenyl)-1,3,4-oxadiazol-2-amine]	10 to 50 µM
COc1ccc(-c2nnc(Nc3nc4c(OC)nccc4[nH]3)o2)cc1F [Compound 33, 5-(3-Fluoro-4-methoxyphenyl)-N-(4-methoxy-1H-imidazo[4,5-c]pyridin-2-yl)-1,3,4-oxadiazol-2-amine]	> 10 µM
COc1ccc(-c2csc(Nc3nc4c(OC)nc(C)cc4[nH]3)n2)cc1C#N [Compound 53, 2-Methoxy-5-(2-((4-methoxy-6-methyl-1H-imidazo[4,5-c]pyridin-2-yl)amino)thiazol-4-yl)benzonitrile]	> 100 µM
COc1ccc(-c2nnc(Nc3nc4c(OC)nc(C)cc4[nH]3)o2)cc1OC [Compound 55, 5-(3,4-dimethoxyphenyl)-N-(4-methoxy-6-methyl-1H-imidazo[4,5-c]pyridin-2-yl)-1,3,4-oxadiazol-2-amine]	< 10 µM
